Data from publication PMC12475274, “Harnessing indole scaffolds to identify small-molecule IRE1α inhibitors modulating XBP1 mRNA splicing” (Nature Communications, 2025).
Several values for one entry are separate records, joined by “and”; a condition that tells them apart may be missing. Equal values may be shown once. Entries after “also recorded” stand apart in the source; their conditions may differ. Read-outs that look alike come from different tables or passages of the source. Blank lines part the entries; values can stand above or below the compound they belong to.

Tests used:
[1] = target: T1, dephosphorylated IRE1α (547–977) (Homo sapiens, UniProt O75460); experiment: FRET-based IRE1α RNase activity assay, dephosphorylated IRE1α; format: biochemical; details: for IC50: FRET assay; for inhibition at 50 µM: read-out: IRE1α inhibition%
T1 construct: Human IRE1α kinase and RNase domain (residues 547–977) was subcloned into pLIB plasmid; His tag (with TEV cleavage site) (N, cleaved yes); made in house; host or cells: Sf9 insect cells, baculovirus (Bac-to-Bac)
Description: (§1) Human IRE1α kinase and RNase domain (residues 547–977) was subcloned into pLIB plasmid with a His tag and TEV cleavage site, and expressed using Bac-to-Bac expression system. The primers used are listed in Supplementary Table S3. The protein purification was performed following established procedures. Briefly, Sf9 cells were infected with baculovirus and incubated at 27 °C 110 rpm for 72 h. The cells were collected by centrifugation at 4000 × g for 15 min and the cell pellet was resuspended in lysis buffer (50 mM HEPES pH 7.5, 300 mM NaCl, 10% glycerol, 1 mM MgCl2, 1 mM TCEP, 5 mM imidazole), then supplemented with 1:10,000 benzonase (Sigma, E1014), 1 tablet/25 mL […]™ Protease Inhibitor Cocktail tablets (Sigma, S8830) and 1 mM PMSF before lysed by sonication at 4 °C. […] The protein elution was incubated with TEV protease to remove His tag at 4 °C overnight. Then the sample was diluted 1:6 in buffer (50 mM HEPES pH 7.5, 1 mM TCEP, 5% glycerol) and loaded onto a 5 mL pre-packaged Q HP anion exchange column (Cytiva, HiTrap Q HP) pre-equilibrated with QA buffer (50 mM HEPES pH 7.5, 50 mM NaCl, 1 mM TCEP, 5% glycerol). The unphosphorylated and phosphorylated protein was separated by eluting the protein with a very shallow gradient with 0-30% buffer QB (50 mM HEPES pH 7.5, 1 M NaCl, 1 mM TCEP, 5% glycerol) over 80 CV. Different peaks were collected separately and verified by LC-MS. The fully phosphorylated fraction was collected and further purified by size exclusion chromatography (Cytiva, HiLoad 16/600 Superdex 200 pg,) with SEC buffer (25 mM HEPES pH 7.5, 250 mM NaCl, 1 mM TCEP, 10% glycerol) and fractioned as monomeric peak. The rest protein fraction from the Q HP anion exchange column was incubated with Lambda protein phosphatase (New England BioLabs, P0753S) overnight at 4 °C, the dephosphorylation was confirmed by LC-MS. The unphosphorylated protein was further purified by size exclusion chromatography with the SEC buffer described above. The purified phosphorylated (p-IRE1α) and dephosphorylated (IRE1α) protein aliquots were stored at −80 °C for future usage.
The dual-labeled RNA substrate with a FAM at 5’ and the BHQ-1 at 3’ containing the XBP1 sequence (5′FAM-[…]-3′BHQ1) was purchased from Integrated DNA Technologies (IDT). The FRET-based IRE1α RNase activity assay was carried out in reaction buffer containing 20 mM HEPES pH 7.5, 50 mM KOAc, 1 mM MgOAc2, 1 mM DTT, 0.05% v/v TritonX-100, at a total reaction volume of 20 μL in a 384-well black plate (4514, Corning). For unphosphorylated IRE1α (IRE1α), a final concentration of 40 nM IRE1α protein and 100 nM RNA substrate was used. For phosphorylated IRE1 (p-IRE1α), a final concentration of 4 nM p-IRE1α protein and 200 nM RNA substrate was used. The indicated compound and IRE1α protein were incubated for 30 min at room temperature before the substrate was added to the reaction. The plate was then kinetically read over one hour at room temperature using a TECAN Spark plate reader. The measurement was carried out using the fluorescence top reading mode at the excitation wavelength of 485 nm and the emission wavelength of 535 nm with a 10 nm excitation and emission bandwidth. The linear part of the reaction curve was adopted and fitted with sample linear regression to obtain the slope, and the slope was adopted to reflect the reaction rate. The inhibition % was calculated by using the equation: inhibition% = 100 × (slope of DMSO control – slope of the sample)/(slope of DMSO control – slope of blank control), DMSO control: DMSO with protein and RNA substrate; Blank control: DMSO with RNA substrate. The IC50 values were calculated using the concentration-response model in GraphPad Prism 9. […]

[2] = target: T2, phosphorylated IRE1α (p-IRE1α) (Homo sapiens, UniProt O75460); experiment: FRET-based IRE1α RNase activity assay, phosphorylated IRE1α; format: biochemical
T2 construct: Human IRE1α kinase and RNase domain (residues 547–977) was subcloned into pLIB plasmid; His tag (with TEV cleavage site) (N, cleaved yes); made in house; host or cells: Sf9 insect cells, baculovirus (Bac-to-Bac)
Description: as §1
The dual-labeled RNA substrate with a FAM at 5’ and the BHQ-1 at 3’ containing the XBP1 sequence (5′FAM-[…]-3′BHQ1) was purchased from Integrated DNA Technologies (IDT). The FRET-based IRE1α RNase activity assay was carried out in reaction buffer containing 20 mM HEPES pH 7.5, 50 mM KOAc, 1 mM MgOAc2, 1 mM DTT, 0.05% v/v TritonX-100, at a total reaction volume of 20 μL in a 384-well black plate (4514, Corning). For unphosphorylated IRE1α (IRE1α), a final concentration of 40 nM IRE1α protein and 100 nM RNA substrate was used. For phosphorylated IRE1 (p-IRE1α), a final concentration of 4 nM p-IRE1α protein and 200 nM RNA substrate was used. The indicated compound and IRE1α protein were incubated for 30 min at room temperature before the substrate was added to the reaction. The plate was then kinetically read over one hour at room temperature using a TECAN Spark plate reader. The measurement was carried out using the fluorescence top reading mode at the excitation wavelength of 485 nm and the emission wavelength of 535 nm with a 10 nm excitation and emission bandwidth. The linear part of the reaction curve was adopted and fitted with sample linear regression to obtain the slope, and the slope was adopted to reflect the reaction rate. The inhibition % was calculated by using the equation: inhibition% = 100 × (slope of DMSO control – slope of the sample)/(slope of DMSO control – slope of blank control), DMSO control: DMSO with protein and RNA substrate; Blank control: DMSO with RNA substrate. The IC50 values were calculated using the concentration-response model in GraphPad Prism 9.

[3] = RNase activity, mean (± SEM), read-out: IRE1α IC50
[4] = source data, unit from Fig. 3 / sheet Fig. 2b, read-out: IRE1a IC50, individual replicates (n1-n4)
[5] = FRET assay, RNase activity, mean (± SEM), read-out: p-IRE1α IC50
[6] = FRET assay, source data, unit from Fig. 3, read-out: p-IRE1a IC50, individual replicates (n1-n4)
[7] = FRET assay at 50 μM, mean (± SEM)
[8] = FRET assay at 50 μM, mean (± SEM), read-out: p-IRE1α inhibition%

T1 sequence (O75460 547-977): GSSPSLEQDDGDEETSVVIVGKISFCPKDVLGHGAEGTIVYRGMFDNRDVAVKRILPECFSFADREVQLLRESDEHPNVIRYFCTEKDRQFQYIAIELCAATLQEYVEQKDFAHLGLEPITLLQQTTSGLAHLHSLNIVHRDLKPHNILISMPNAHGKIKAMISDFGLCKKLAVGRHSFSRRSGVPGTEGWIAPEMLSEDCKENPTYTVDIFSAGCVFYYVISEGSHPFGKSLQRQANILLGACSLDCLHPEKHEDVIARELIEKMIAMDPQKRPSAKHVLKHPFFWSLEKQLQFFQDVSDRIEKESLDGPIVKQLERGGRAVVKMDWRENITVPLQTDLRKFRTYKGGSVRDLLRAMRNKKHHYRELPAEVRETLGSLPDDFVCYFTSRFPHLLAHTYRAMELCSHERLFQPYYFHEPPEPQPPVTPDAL
T2 sequence (O75460 547-977): as above

SMILES: Cc1c(CCC(=O)O)c2cc(-c3cn[nH]c3)ccc2n1C(=O)c1ccccc1 [IA158]
IC50 [1, 3]: 0.7 µM | IC50 [1, 4]: 0.708 µM and 0.693 µM | IC50 [2, 5]: 2.34 µM | IC50 [2, 6]: 3.18 µM and 1.5 µM

SMILES: CC(=O)c1ccc(-c2ccc3c(c2)c(CCC(=O)O)c(C)n3C(=O)c2ccccc2)s1 [IA162]
IC50 [1, 3]: 4.73 µM | IC50 [1, 4]: 3.28 µM and 6.18 µM | IC50 [2, 5]: 15.1 µM | IC50 [2, 6]: 15.8 µM and 14.4 µM

SMILES: COc1ccc2c(c1)c(CC(=O)O)c(C)n2C(=O)c1ccc(Cl)cc1 [Indomethacin, indomethacin, reference compound]
IRE1α inhibition% ([1]; FRET assay at 50 μM, mean (± SEM), 50 µM): < 30% | inhibition at 50 µM [1, 7]: ≤ 50% | inhibition at 50 µM [2, 8]: < 30%

SMILES: CCc1c(C)n(C(=O)c2ccc(Cl)cc2)c2ccc(OC)cc12 [cms01]
inhibition at 50 µM [1, 7]: < 30% | inhibition at 50 µM [2, 8]: < 30%

Further lines, with some results ahead:

IC50 [1, 3]: 2.16 µM | IC50 [1, 4]: 2.9 µM and 1.77 µM and 1.82 µM | IC50 [2, 5]: 11.6 µM | IC50 [2, 6]: 12.4 µM and 15.4 µM and 6.99 µM
SMILES: Cc1c(CCC(=O)O)c2cc(-c3ccncc3)ccc2n1C(=O)c1ccccc1 [IA153]

IC50 [1, 3]: 6.22 µM and 6.23 µM | IC50 [1, 4]: 5.53 µM and 6.93 µM | IC50 [2, 5]: 28.3 µM | IC50 [2, 6]: 34.9 µM and 21.7 µM
SMILES: Cc1c(CCC(=O)O)c2cc(-c3ccccc3C#N)ccc2n1C(=O)c1ccccc1 [IA159]

IC50 [1, 3]: 7.41 µM | IC50 [1, 4]: 6.38 µM and 8.45 µM | p-IRE1α IC50 ([2]; FRET assay, RNase activity, mean (± SEM)): IC₅₀ not reached | IC50 [2, 5]: > 20 µM
SMILES: Cc1c(CCC(=O)O)c2cc(-c3ccc(O)cc3)ccc2n1C(=O)c1ccccc1 [IA163]

inhibition at 5.55556 µM ([1]; IRE1a, 5.55556 μM): 11.3% | inhibition(%) ([1]; IRE1a, 5.55556 μM): 18.332% and 22.563% and 19.929% | effect on p-IRE1α RNase activity in the FRET assay [2]: did not show activity
SMILES: Cc1c(CCC(=O)O)c2cc(Br)ccc2n1Cc1ccccc1 [IA164]
effect on IRE1α RNase activity in the FRET assay [1]: did not show activity; also recorded: complete loss of activity | inhibition(%) ([2]; p-IRE1a, 0.000847 μM): -3.310% and -10.444% and -6.973% and -11.312% | inhibition(%) ([2]; p-IRE1a, 0.00254 μM): -11.263% and -6.154% and -5.913% and -3.985% | inhibition(%) ([2]; p-IRE1a, 0.007621 μM): -3.888% and -1.575% and -3.262% and -6.925% | inhibition(%) ([2]; p-IRE1a, 0.022862 μM): -9.528% and -12.854% and -7.504% and -7.552% | inhibition(%) ([2]; p-IRE1a, 0.205761 μM): -14.011% and -13.481% and -9.046% and -6.299% | inhibition(%) ([2]; p-IRE1a, 0.617284 μM): -12.951% and -9.625% and -7.070% and -4.226% | inhibition(%) ([2]; p-IRE1a, 1.85185 μM): -7.504% and -4.708% and -6.877% and -5.527% | inhibition(%) ([2]; p-IRE1a, 5.55556 μM): -7.793% and -8.660% and -17.192% and -15.216%

effect on IRE1α RNase activity in the FRET assay [1]: decreased the inhibitory activity | inhibition at 0.617284 µM ([1]; IRE1a, 0.617284 μM): 36.9% | inhibition(%) ([1]; IRE1a, 0.617284 μM): 46.932% and 53.398% and 47.875% | inhibition at 1.85185 µM ([1]; IRE1a, 1.85185 μM): 53.7% | inhibition(%) ([1]; IRE1a, 1.85185 μM): 60.820% and 65.775% and 59.822% | inhibition at 5.55556 µM ([1]; IRE1a, 5.55556 μM): 76% | inhibition(%) ([1]; IRE1a, 5.55556 μM): 76.919% and 67.673% and 77.366% | inhibition(%) ([1]; IRE1a, 16.6667 μM): 82.061% and 76.393% and 74.507% | inhibition at 16.6667 µM ([1]; IRE1a, 16.6667 μM, read-out: inhibition(%)): 75.9% | inhibition(%) ([2]; p-IRE1a, 0.068587 μM): 0.450% and 2.715% and -3.792% and 0.305% | inhibition(%) ([2]; p-IRE1a, 0.205761 μM): 1.992% and 4.885% and 4.065% and 5.463% | inhibition at 1.85185 µM ([2]; p-IRE1a, 1.85185 μM): 34% | inhibition(%) ([2]; p-IRE1a, 1.85185 μM): 36.843% and 31.203% and 36.891% | inhibition at 5.55556 µM ([2]; p-IRE1a, 5.55556 μM): 58.9% | inhibition(%) ([2]; p-IRE1a, 5.55556 μM): 56.028% and 61.836% and 59.894% | inhibition at 16.6667 µM ([2]; p-IRE1a, 16.6667 μM): 90.7% | inhibition(%) ([2]; p-IRE1a, 16.6667 μM): 88.753% and 83.846% and 83.803% | inhibition(%) ([2]; p-IRE1a, 50 μM): 95.227% and 95.680% and 96.051% | inhibition at 50 µM ([2]; p-IRE1a, 50 μM, read-out: inhibition(%)): 94.7%
SMILES: Cc1c(CCC(=O)O)c2cc(Br)ccc2n1C(=O)C1CCCCC1 [IA165]
inhibition(%) ([1]; IRE1a, 50 μM): 53.077% and 49.468% and 70.447% and 68.706% | inhibition(%) ([2]; p-IRE1a, 0.000847 μM): -0.707% and 0.787% and -7.504% and -5.865% | inhibition(%) ([2]; p-IRE1a, 0.00254 μM): -6.491% and -3.358% and -4.226% and 3.246% | inhibition(%) ([2]; p-IRE1a, 0.007621 μM): -0.418% and -0.611% and -4.226% and 0.305%
